Measurements as given in article doi:10.1101/2023.04.05.535794v1 (biorxiv, 2023).

What was measured:
Assay in all cases: fluorogenic peptide-amc hydrolysis, dose-response over […] h
Type in all cases: biochemical
[1] = target: T1, Tv20S β5 (T. vaginalis 20S proteasome, β5 site) (Trichomonas vaginalis, UniProt A2DD57)
T1 sequence (A2DD57 54-256): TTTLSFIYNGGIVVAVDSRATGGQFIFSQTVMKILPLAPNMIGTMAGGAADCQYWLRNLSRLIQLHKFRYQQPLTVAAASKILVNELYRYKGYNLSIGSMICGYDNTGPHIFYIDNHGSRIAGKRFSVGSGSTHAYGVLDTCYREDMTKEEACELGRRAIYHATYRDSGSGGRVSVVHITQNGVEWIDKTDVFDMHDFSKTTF

[2] = target: T2, Tv20S β2 (T. vaginalis 20S proteasome, β2 site) (Trichomonas vaginalis, UniProt A2F2T6)
T2 sequence (A2F2T6 32-275): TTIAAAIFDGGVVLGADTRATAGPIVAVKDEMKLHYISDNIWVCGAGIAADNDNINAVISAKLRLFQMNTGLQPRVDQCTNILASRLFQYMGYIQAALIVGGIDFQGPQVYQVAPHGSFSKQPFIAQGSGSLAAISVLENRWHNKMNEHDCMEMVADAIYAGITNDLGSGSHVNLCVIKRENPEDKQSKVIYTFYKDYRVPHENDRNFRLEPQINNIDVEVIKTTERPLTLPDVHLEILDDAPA

[3] = target: T3, Tv20S β1 (T. vaginalis 20S proteasome, β1 site) (Trichomonas vaginalis, UniProt A2E7Z2)
T3 sequence (A2E7Z2 13-216): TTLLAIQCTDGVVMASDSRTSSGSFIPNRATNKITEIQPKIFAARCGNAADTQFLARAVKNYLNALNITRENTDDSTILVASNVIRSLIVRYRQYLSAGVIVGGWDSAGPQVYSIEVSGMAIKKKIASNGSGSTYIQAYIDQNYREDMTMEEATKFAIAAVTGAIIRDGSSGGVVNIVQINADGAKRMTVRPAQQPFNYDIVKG

IC50 [1] [nM] | IC50 [2] [nM] | IC50 [3] [nM] | SMILES
78.4 ± 17.3 | 372 ± 92.1 |  | CC(C)C[C@H](NC(=O)[C@H](CCc1ccccc1)NC(=O)CN1CCOCC1)C(=O)N[C@@H](Cc1ccccc1)C(=O)N[C@@H](CC(C)C)C(=O)[C@@]1(C)CO1 [carfilzomib]
34.1 ± 5.4 |  | 270 ± 97.1 | CC(C)C[C@H](NC(=O)CNC(=O)c1cc(Cl)ccc1Cl)B(O)O [ixazomib]
